Series [1] concerns SK-MEL-2 human melanoma xenograft (NRAS mutant). The class given is in vivo. Particulars: for Non-Specific Deaths / Regression (100%) / Tumor Free on Day 74: n=8; for Delta AUC: vs vehicle. How it is done: Eight week old female athymic NCr-nu/nu mice were inoculated SC with 30-40 mg tumor fragments, propagated in an in vivo passage, in the area of the right flank. Tumor growth was monitored with vernier calipers and the tumor volume was calculated using the formula (0.5×[length×width^2]). When the mean tumor volume (MTV) reached approximately 167 mm^3 (range of 100-245 mm^3) animals were randomized into 12 treatment groups (n=8/group). The animals were dosed beginning 12 days after tumor inoculation with either vehicles or test compounds. The first day of treatment was designated as Day 0.
The 10 mg/mL solution was diluted with 100% PEG 400 for the lower dose.
Sodium alisertib was formulated in a half volume of 20% HPBCD in WFI and then diluted to a final volume (10% HPBCD/1% NaHCO3 in WFI) with 2% sodium bicarbonate in WFI.
The 2 vehicles, 100% PEG 400 (Vehicle 1) and 10% HPBCD/1% NaHCO3 in WFI (Vehicle 2) were administered (0.05 mL/10 g BW) concomitantly to mice in the vehicle group.
Tumor size and body weight were measured BIW beginning on the first day of treatment. Animals were terminated when their tumor reached approximately 2000 mm3, and the study was terminated on Day 62 post treatment initiation.
Inhibition of tumor growth was determined by calculating the percent TGI (MTV of the vehicle group−MTV of a treated group)/MTV of the vehicle group on Day 20 post treatment initiation. Statistical comparisons of tumor growth between treatment groups and vehicle were conducted using a linear mixed effects regression analysis on the ΔAUC.
Additional endpoints used to evaluate efficacy were: nonspecific deaths, complete tumor response, and the number of tumor-free survivors (TFS), defined as no measurable tumor observed on the last day of data collection prior to study termination (Day 62 post treatment initiation). A complete response (CR) was defined as a decrease in tumor mass to an undetectable size (<32 mm3).
The differences in the tumor growth trends over time between the vehicle control and treatment groups were assessed using linear mixed effects regression models. These models take into account that each animal was measured at multiple time points. A model was fit for the comparison, and the areas under the tumor volume-versus-time curve (AUCs) for control and treatment groups were calculated using the values predicted from the model.
These values were compared across treatment groups to assess whether the differences in trends over time were statistically significant. To compare pairs of treatment groups, the following mixed-effects linear regression model was fit to the data using the maximum likelihood method:
Where Yijk is the log 10 tumor value at the jth time point of the kth animal in the ith treatment, Yi0k is the day 0 (baseline) log 10 tumor value in the kth animal in the ith treatment, dayj was the median-centered time point and (along with day2j) was treated as a continuous variable, and eijk is the residual error. A spatial power law covariance matrix was used to account for the repeated measurements on the same animal over time. Interaction terms as well as day2j terms were removed if there were not statistically significant.
The −2 log likelihood of the full model was compared to one without any treatment terms (reduced model) and the difference in the values was tested using a Chi-squared test. The degrees of freedom of the test were calculated as the difference between the degrees of freedom of the full model and that of the reduced model.
The predicted differences in the log tumor values (Yijk-Yi0k, which can be interpreted as log 10 (fold change from day 0)) were taken from the above models to calculate mean AUC values for each treatment group. A dAUC value was then calculated as: […]
For synergy analysis, the observed differences in the log tumor values were used to calculate AUC values for each animal. […]

Series [2] has as its system A375 melanoma xenograft (B-Raf mutant). Description: In vivo tumor efficacy, B-Raf mutated A375 human melanoma xenograft model. Further details: species or system Mouse (Mus musculus) Athymic Balb/c Nude. Particulars: for Mean Maximum % BWL: Day 0 to Day 21; for TGI: Day 21 post treatment initiation. How it is done:
Each animal was inoculated with 3×10^6 A375 tumor cells (in 0.1 mL, 1:1 with Matrigel) into the right flank for tumor model development. Body weight and the tumor growth were monitored twice weekly. Tumor size was measured to the nearest 0.1 mm using vernier calipers and applying the formula V=W2×L/2, where V=volume, W=width, and L=length for the tumor xenograft. Xenografts were allowed to grow until they reached an average size of approximately 195 min3, 11 days after inoculation.
Sodium alisertib was formulated in 10% HPβCD plus 1% NaHCO3 in water for injection (WFI) (Vehicle 2). Alisertib was prepared and stored at room temperature (18 to 25° C.).
Animals in the vehicle treatment group were given both Vehicle 1 and Vehicle 2.
The dose volume for vehicle or compound was 5 mL/kg body weight.
Tumor size and body weight were measured twice weekly beginning on the day of animal grouping (e.g., Day 0). Animals were terminated when their tumor reached approximately 2000 mm3 and the study was terminated on Day 38 post treatment initiation.
Inhibition of tumor growth was determined by calculating the percent TGI (MTV of the vehicle group−MTV of a treated group)/MTV of the vehicle group] on Day 21 post treatment initiation. Statistical comparisons of tumor growth between treatment groups and vehicle were conducted using a linear mixed effects regression analysis on the ΔAUC.
Statistical analysis was carried out as described in Example 2.
In general terms: Xenograft models place foreign cells or tissue in a host animal.

The mark [3] stands for this setting: Compound A 12.5 mg/kg/inj PO Q1D x 21 from Day 12 (+Vehicle 2).
[4] abbreviates: Compound A 50 mg/kg/inj PO Q3D x 2/3 wks (BIW) from Day 12 (+Vehicle 2).
The mark [5] stands for this setting: Compound A 12.5 mg/kg PO QD Days 1-21 (+Vehicle 2).
[6] abbreviates: Compound A 50 mg/kg PO BIW Days 1, 4, 8, 11, 15, 18 (+Vehicle 2).
Where [7] appears, read: alisertib 20 mg/kg/inj PO Q1D x 21 from Day 12 (+Vehicle 1).
Where [8] appears, read: alisertib 10 mg/kg PO QD Days 1-21 (+Vehicle 1).
Setting [9] is: alisertib 20 mg/kg PO QD Days 1-21 (+Vehicle 1).

Like-named read-outs stand apart in the source and are kept apart here.

Usually TGI stands for how far tumour growth fell short of that in controls. Regarding `C[C@@H](NC(=O)c1ncnc(N)c1Cl)c1ncc(C(=O)Nc2cc(C(F)(F)F)c(Cl)cn2)s1` [Compound A, (R)-2-(1-(6-amino-5-chloropyrimidine-4-carboxamide)ethyl)-N-(5-chloro-4-(trifluoromethyl)pyridin-2-yl)thiazole-5-carboxamide], in series [1] (setting [3]), the “Mean Tumor Volume on Day 32” value was 645 mm^3, the “TGI on Day 32” value worked out at 70.7%, the “Non-Specific Deaths” value was 0 and the “Regression (100%)” value amounted to 0. For the same compound, in series [1] (setting [3]), the “Tumor Free on Day 74” value stood at 0 and the “Delta AUC” value came to 37.3. In series [1] (setting [4]), the “Mean Tumor Volume on Day 32” value came to 816 mm^3, the “TGI on Day 32” value was 62.9%, the “Non-Specific Deaths” value was determined as 0 and the “Regression (100%)” value is reported as 0. Moreover, in series [1] (setting [4]), the “Tumor Free on Day 74” value amounted to 0 and the “Delta AUC” value is recorded as 35.6. In series [2] (setting [5]), the “Mean Maximum % BWL” value is given as 0% and the TGI is listed as 76.4%. In series [2] (setting [6]), the “Mean Maximum % BWL” value is recorded as 0% and the TGI was determined as 45.3%.

On to `COc1cc(Nc2ncc3c(n2)-c2ccc(Cl)cc2C(c2c(F)cccc2OC)=NC3)ccc1C(=O)O` [alisertib, 4-{[9-chloro-7-(2-fluoro-6-methoxyphenyl)-5H-pyrimido[5,4-d][2]benzazepin-2-yl]amino}-2-methoxybenzoic acid, reference compound], for which, in series [1] (setting [7]), the “Mean Tumor Volume on Day 32” value is 872 mm^3, the “TGI on Day 32” value stood at 60.3%, the “Non-Specific Deaths” value was 0 and the “Regression (100%)” value turned out to be 0. Also, in series [1] (setting [7]), the “Tumor Free on Day 74” value was found to be 0 and the “Delta AUC” value was 30.9. In addition, in series [2] (setting [8]), the “Mean Maximum % BWL” value is 0% and the TGI is recorded as 21.7%. Besides, in series [2] (setting [9]), the “Mean Maximum % BWL” value amounted to 0% and the TGI came out at 40.7%.
